The values below are quoted from earlier work in US20210330903A1, “Multiple Dose Nasal Spray of Naloxone” (Navinta III Inc, priority 2020, published 2021).

The structures appear in SMILES notation.

`C=CCN1CC[C@]23c4c5ccc(O)c4O[C@H]2C(=O)CC[C@@]3(O)[C@H]1C5.Cl` [Naloxone hydrochloride, 17-Allyl-4,5α-epoxy-3,14 dihydroxymorphinan-6-one hydrochloride]: under “alcohol”, the solubility in alcohol entry is “slightly soluble”. Further, under “chloroform”, the solubility in chloroform entry is reported as “practically insoluble”. The “solubility in dilute acids” value (dilute acids) was “soluble”. The solubility in ether entry (ether) is listed as “practically insoluble”. For the same compound, where the note is “strong alkali”, the “solubility in strong alkali” value was “soluble”. Moreover, under “water”, the solubility in water entry was “soluble”.
